Data on 5 compounds can be found in US11622556B2, “Re-oiled and hyper-oiled lecithin carrier vehicles” (BIO-UP MIMETIC TECHNOLOGIES, INC., priority 2016, dated 2023).

In one assay the test system is Sinorhizobium meliloti. Put plainly: Microbial growth in 96-well plate, change in absorbance at 630 nm. To be noted: for overall potency order of essential oils: essential oils in de-oiled lecithin liposomes with triglyceride. The class given is cell-based.
The next assay concerns mosquito larvae. The class given is in vivo. The note with it: liposomal essential oils in pond water.

Consider `O=CC=Cc1ccccc1` [cinnamaldehyde], for which the “overall potency order of essential oils” value with Sinorhizobium meliloti was “vetiver≈cinnamaldehyde>citronella≈sandalwood≈bayleaf≈patchouli≈rosewood>linalool≈d-limonene”. Further, the “activity as a single agent” value in the assay with Sinorhizobium meliloti (liposomes with 0, 20 or 45 wt % triglyceride, particularly notable at 45%) is “greater activity than citronella”. The larvicidal activity order result in the assay on mosquito larvae is “thymol>cinnamaldehyde˜d-limonene>citronella˜eugenol>sandalwood oil˜coriander oil˜lavender oil”. On to `C=C(C)[C@H]1CC=C(C)CC1` [d-limonene], for which, in the assay with Sinorhizobium meliloti, the “overall potency order of essential oils” value is on record as “vetiver≈cinnamaldehyde>citronella≈sandalwood≈bayleaf≈patchouli≈rosewood>linalool≈d-limonene”. Further, the larvicidal activity order entry with mosquito larvae is on record as “thymol>cinnamaldehyde˜d-limonene>citronella˜eugenol>sandalwood oil˜coriander oil˜lavender oil”. Regarding `COc1cc(/C=C/C(=O)CC(=O)/C=C/c2ccc(O)c(OC)c2)ccc1O` [diferuloylmethane, reference compound], the “antimicrobial activity of marker label” value in the assay with Sinorhizobium meliloti (in liposome membrane) was “no antimicrobial activity”. On to `C=CCc1ccc(O)c(OC)c1` [eugenol], for which, in the assay on mosquito larvae, the larvicidal activity order entry was “thymol>cinnamaldehyde˜d-limonene>citronella˜eugenol>sandalwood oil˜coriander oil˜lavender oil”.

Turning to `Cc1ccc(C(C)C)c(O)c1` [thymol], the larvicidal activity order entry in the assay on mosquito larvae is recorded as “thymol>cinnamaldehyde˜d-limonene>citronella˜eugenol>sandalwood oil˜coriander oil˜lavender oil”.
